Laboratory results from patent US20080234188A1, “Antimicrobial Peptides” (The Hospital for Sick Children, priority 2001, published 2008).
Values after ≈ are worked out from the molar mass of the structure shown. Where a SMILES comes first, the peptide text is derived from it. Where no end group is shown, it is not given here.

What was measured:
[1] = test system: Corynebacterium xerosis (C875); assay type: cell-based
Description: (§1) The bacterial strains used were E. coli C498, E. coli C500, Escherichia coli UB1005 and its antibiotic supersusceptible derivative DC2 (22); a clinical isolate of Staphylococcus epidermidis (C621); coryneform bacterial strain Corynebacterium xerosis (C875); and E. coli ATCC 25922, Staphylococcus aureus ATCC 25923, Enterococcus faecalis ATCC 29212, Bacillus subtilis ATCC 6633 and Pseudomonas aeruginosa ATCC 27853, all from American Type Culture Collection.
(§2) Peptide antibacterial activity was assessed by the method of R. Hancock et al. (Wu & Hancock (1999), J. Biol. Chem., v. 274, pp. 29-35). Test strains of bacteria from Mueller Hinton agar (MHA) plates were inoculated into 5 ml Mueller Hinton Broth (MHB) in tubes and grown overnight at 37° C. on a shaker (180 rpm). Serial dilutions of test peptides (at 10 times the required test concentrations) were made in 0.01% acetic acid, 0.2% BSA, in polypropylene or coated glass tubes as follows: the test peptide was (a) dissolved in distilled water at 20 times the required maximum concentration (enough final volume for all tests to be performed on a given day); (b) diluted into an equal volume of 0.02% acetic acid, 0.4% BSA to give 10 times the required maximum concentration; (c) serial doubling dilutions were performed in 0.01% acetic acid, 0.2% BSA to provide serial dilutions of peptides at 10 times the required test concentrations, e.g., 640, 320, 160, . . . 2.5 μg/ml. (No deleterious effects of long-term storage of peptides in these media have been detected). Overnight bacterial cultures were diluted in MHB to give 2−7×10^5 colony forming units/ml. Bacterial suspension (100 μl) was dispensed in each well; controls without bacteria were maintained in parallel. To each well was added 11 μl of 10× test peptide and plates were incubated at 37° C. for 18-24 hours, and checked again at 40-48 hours. Plates were read visually and at 600 nm in a microplate reader (Molecular Devices).
(§3) were synthesized. The antibacterial activity of these peptides was determined against both Gram-positive bacteria ([…], Corynebacterium xerosis) and Gram-negative bacteria (various strains of E. coli). The results are shown in Table 2, along with the average hydrophobicity of each peptide, calculated as described herein.
(§4) A further number of the peptides of the invention were tested for antimicrobial activity against a range of Gram-positive and Gram-negative bacteria by the assay described immediately before Example 1.

[2] = test system: Staphylococcus epidermidis (C621); assay type: cell-based
Description: as §1, §2, §3, §4

E. coli DC2 = experiment: Assay of antibacterial activity (MIC), E. coli DC2; assay type: cell-based, Escherichia coli; details: Table 3; Gram-negative
Description: as §1, §2, §4

E. coli UB1005 = assay type: cell-based, Escherichia coli; details: UB1005
Description: as §1, §2, §4

Rabbit RBC = assay type: cell-based
Description: (§5) Erythrocytes from heparinized rabbit or human blood were washed three times with phosphate-buffered saline (PBS; 5 mM phosphate buffer, 0.14 M saline, pH 7.3), and centrifuged at 1000×g for 15 min at 4° C. The erythrocytes were diluted with PBS to 4% (v/v). Dilutions of the peptides in PBS were plated in 100 μl volumes in microtitre plates (Costar 3790, polypropylene) together with 100μl of the erythrocyte suspension. PBS was used as control and 100% lysis was determined in 0.1% Triton X-100. The plates were incubated at 37° C. for 1 h and then centrifuged at 1000×g for 5 min. 100 μl aliquots of the supernatant were transferred to microtitre plates (Nunc, polystyrene), and the release of hemoglobin was monitored by measurement of the absorbance at 540 nm in a microplate reader. The results are shown in Table 6, for peptide concentrations of […]. With only one or two exceptions, little or no hemolysis was seen.

[3] = test system: C498: E. coli, wild type strain; assay type: cell-based; details: for MIC C498: wild type strain
Description: as §1, §2, §3

[4] = test system: C500: E. coli, antibiotic strain; assay type: cell-based; details: for MIC C500: antibiotic strain
Description: as §1, §2, §3

[5] = Hydrophobicity (hydropathy) from reverse-phase HPLC retention scale; assay type: physicochemical; set-up: key to Average Hydrophobicity of Core Sequence / Mean Core segment Hydrophobicity: arithmetic average of Table 1 hydropathy values of constituent residues; key to Hydropathy: hydropathy scale from HPLC retention times of model peptides (Table 1); details: for Average Hydrophobicity of Core Sequence: Table 2, calculated from Table 1 hydropathy values
Description: The “hydrophobicity value” of an amino acid residue means the hydrophobicity value of that residue as shown in Table 1 or as calculated by the method described herein.
The “hydrophobicity value” of an amino acid sequence or peptide means the arithmetic average of the individual hydrophobicity values of the constituent amino acid residues of the sequence.
Various hydrophobicity scales for proteins and amino acids have been described in the literature but the inventors have established the hydrophobicity scale of Table 1 based on the retention times on HPLC of a series of hydrophobic model peptides, as described in Liu and Deber (1998), Biopolymers (Peptide Science), v. 47, pp. 41-62).
The hydrophobicity value shown for each amino acid in Table 1 as “hydropathy” may be used as the hydrophobicity value for that amino acid in any peptide whose hydrophobicity value has to be calculated. The “average hydrophobicity” of a peptide containing amino acids shown in Table 1 is calculated by determining the arithmetic average of the Table 1 “hydropathy” values for the constituent amino acids of the sequence.
Peptides in accordance with the invention may also include other amino acids. For an amino acid not included in Table 1, the hydrophobicity value may be determined by the same method as described herein for obtaining the values of Table 1. For example, a peptide such as KKAAAXAAAAAXAAXAAXAAAKKKK-amide (Sequence ID No: 1) may be synthesized, where X is the amino acid whose hydrophobicity value is to be determined, and the retention time of the peptide on HPLC is determined, as described in the Examples. Similar peptides where X is Lys or Phe are also prepared and their HPLC retention times determined. The retention time, Rx, is converted to the hydropathy value H for the selected amino acid using the equation
H=(10×ΔtRx-Lys/ΔtRPhe-Lys)−5.00
where ΔtRx-Lys=retention time difference in minutes between Rx and the retention time of the most hydrophilic peptide tested (X=Lys) and where ΔtRPhe-Lys=retention time difference in minutes between the most hydrophobic peptide tested (X=Phe) and the most hydrophilic (X=Lys).
The retention time of each peptide was determined on a C4 reversed-phase column (4.6×250 mm, 300 A pore size, 10 μ particle size). Equal amounts of each peptide were injected into the column and eluted at a flow rate of 1 mL/min, utilizing a linear AB gradient (2% B/min), where buffer A was 0.1% TFA/ddH2O, and buffer B was 0.1% TFA/acetonitrile. The retention time of each peptide reported here was the average of triplicate measurements.

Human RBC = assay type: cell-based
Description: as §5

Molecule	MIC C. xerosis C875 [1]	MIC S. epidermidis C621 [2]	MIC E. coli DC2 (E. coli DC2)	MIC E. coli UB1005 (E. coli UB1005)	Rabbit RBC (% lysis) 50 μM (Rabbit RBC)	Rabbit RBC (% lysis) 200 μM (Rabbit RBC)	MIC C498 [3]	MIC C500 [4]	MIC C621 [2]	Mean residue hydropathy of X-residue peptide ([5]; Table 1)	Hydropathy ([5]; Table 1, of the X-residue, from HPLC retention of KKAAAXAAAAAXAAWAAXAAAKKKK-amide peptides)	Average Hydrophobicity of Core Sequence [5]	Mean Core segment Hydrophobicity ([5]; Table 3)	Human RBC (% lysis) 50 μM (Human RBC)	Human RBC (% lysis) 200 μM (Human RBC)	MIC C875 [1]	MIC C498 (active/inactive) ([3]; Table 2, class symbols)	MIC C500 (active/inactive) ([4]; Table 2, class symbols)	MIC C875 (active/inactive) ([1]; Table 2, class symbols)	MIC C621 (active/inactive) ([2]; Table 2, class symbols)
C[C@H](NC(=O)[C@H](C)NC(=O)[C@H](C)NC(=O)[C@H](C)NC(=O)[C@H](C)NC(=O)[C@H](C)NC(=O)[C@H](C)NC(=O)[C@H](CCCCN)NC(=O)[C@@H](N)CCCCN)C(=O)N[C@@H](C)C(=O)N[C@@H](C)C(=O)N[C@@H](C)C(=O)N[C@@H](C)C(=O)N[C@@H](C)C(=O)N[C@@H](Cc1c[nH]c2ccccc12)C(=O)N[C@@H](C)C(=O)N[C@@H](C)C(=O)N[C@@H](C)C(=O)N[C@@H](C)C(=O)N[C@@H](C)C(=O)N[C@@H](C)C(=O)N[C@@H](CCCCN)C(=O)N[C@@H](CCCCN)C(=O)N[C@@H](CCCCN)C(=O)N[C@@H](CCCCN)C(N)=O [Peptide A25] (H-KKAAAAAAAAAAAAWAAAAAAKKKK-NH2; N-terminus assumed)	2 µM (≈ 4.5 µg/mL)	>64 µM	>64 µM	>64 µM	0 % lysis	1 % lysis	–	–	–	–	–	–	–	–	–	–	–	–	–	–
CC[C@H](C)[C@H](NC(=O)[C@H](C)NC(=O)[C@H](C)NC(=O)[C@H](C)NC(=O)[C@H](CCCCN)NC(=O)[C@@H](N)CCCCN)C(=O)N[C@@H](C)C(=O)N[C@@H](C)C(=O)N[C@@H](C)C(=O)N[C@@H](C)C(=O)N[C@@H](C)C(=O)N[C@H](C(=O)N[C@@H](C)C(=O)N[C@@H](C)C(=O)N[C@@H](Cc1c[nH]c2ccccc12)C(=O)N[C@@H](C)C(=O)N[C@@H](C)C(=O)N[C@H](C(=O)N[C@@H](C)C(=O)N[C@@H](C)C(=O)N[C@@H](C)C(=O)N[C@@H](CCCCN)C(=O)N[C@@H](CCCCN)C(=O)N[C@@H](CCCCN)C(=O)N[C@@H](CCCCN)C(N)=O)[C@@H](C)CC)[C@@H](C)CC [Peptide I25] (H-KKAAAIAAAAAIAAWAAIAAAKKKK-NH2; N-terminus assumed)	<0.25 µM	4 µM (≈ 9.51 µg/mL)	16 µM (≈ 38 µg/mL)	>32 µM	–	–	10 µM (≈ 23.8 µg/mL)	10 µM (≈ 23.8 µg/mL)	5 µM (≈ 11.9 µg/mL)	1.09	4.41	1.09	1.09	–	–	–	–	–	–	–
C[C@H](NC(=O)[C@H](C)NC(=O)[C@H](C)NC(=O)[C@H](CO)NC(=O)[C@H](C)NC(=O)[C@H](C)NC(=O)[C@H](C)NC(=O)[C@H](CCCCN)NC(=O)[C@@H](N)CCCCN)C(=O)N[C@@H](C)C(=O)N[C@@H](C)C(=O)N[C@@H](CO)C(=O)N[C@@H](C)C(=O)N[C@@H](C)C(=O)N[C@@H](Cc1c[nH]c2ccccc12)C(=O)N[C@@H](C)C(=O)N[C@@H](C)C(=O)N[C@@H](CO)C(=O)N[C@@H](C)C(=O)N[C@@H](C)C(=O)N[C@@H](C)C(=O)N[C@@H](CCCCN)C(=O)N[C@@H](CCCCN)C(=O)N[C@@H](CCCCN)C(=O)N[C@@H](CCCCN)C(N)=O [Peptide S25] (H-KKAAASAAAAASAAWAASAAAKKKK-NH2; N-terminus assumed)	>64 µM	>64 µM	>64 µM	>64 µM	0 % lysis	3 % lysis	–	–	–	–	–	–	–	0 % lysis	0 % lysis	–	–	–	–	–
C[C@H](NC(=O)[C@H](C)NC(=O)[C@H](C)NC(=O)[C@H](Cc1c[nH]c2ccccc12)NC(=O)[C@H](C)NC(=O)[C@H](C)NC(=O)[C@H](C)NC(=O)[C@H](CCCCN)NC(=O)[C@@H](N)CCCCN)C(=O)N[C@@H](C)C(=O)N[C@@H](C)C(=O)N[C@@H](Cc1c[nH]c2ccccc12)C(=O)N[C@@H](C)C(=O)N[C@@H](C)C(=O)N[C@@H](Cc1c[nH]c2ccccc12)C(=O)N[C@@H](C)C(=O)N[C@@H](C)C(=O)N[C@@H](Cc1c[nH]c2ccccc12)C(=O)N[C@@H](C)C(=O)N[C@@H](C)C(=O)N[C@@H](C)C(=O)N[C@@H](CCCCN)C(=O)N[C@@H](CCCCN)C(=O)N[C@@H](CCCCN)C(=O)N[C@@H](CCCCN)C(N)=O [Peptide W25] (H-KKAAAWAAAAAWAAWAAWAAAKKKK-NH2; N-terminus assumed)	<0.25 µM	<0.25 µM	8 µM (≈ 20.8 µg/mL)	16 µM (≈ 41.6 µg/mL)	–	–	6 µM (≈ 15.6 µg/mL)	3 µM (≈ 7.79 µg/mL)	0.7 µM (≈ 1.82 µg/mL)	–	–	–	–	–	–	0.2 µM (≈ 0.519 µg/mL)	–	–	–	–
KKATALVGAASLTAWVGLASAKKKK-NH2	–	–	–	–	–	–	–	–	–	–	–	0.62	–	–	–	–	+	+	+	+
